Results: patent US11214803B2, “Modulators of YAP1 expression” (Ionis Pharmaceuticals, Inc., priority 2019, dated 2022)
Strand notation (5' to 3'): a small letter for the sugar, then the base; units joined by * are phosphorothioate-linked, units joined directly phosphodiester-linked; [ ] holds rarer units or linkages, { } end groups; capitals alone tell only the bases. e = 2'-O-(2-methoxyethyl) (MOE); k = constrained ethyl (cEt); [5mC] = 5-methylcytosine; d = 2'-deoxy (DNA); m = 2'-O-methyl

System: Yap1 mRNA
Experiment: Antisense inhibition of human Yap1 in SNU-449 cells by modified oligonucleotides, single dose (Example 5, RTS36584)
Format: cell-based
Outline: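 Values are % of untreated control: Yap1 mRNA by quantitative RT-PCR (RTS36584), normalized to RIBOGREEN total RNA. Oligonucleotides were dosed at 2,000 nM, free uptake, in SNU-449 cells, with roughly 48 h exposure before RNA isolation.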

[1] = Table 49, Yap1 mRNA level relative to untreated control, modified oligonucleotides targeting SEQ ID NO.: 1 and 2
[2] = Table 43 experiment, SNU-449 cells, 10,000 cells per well, free uptake, 2,000 nM, approximately 48 hours, RTS36584, Yap1 mRNA normalized to RIBOGREEN, relative to untreated control cells
[3] = Table 44 experiment, SNU-449 cells, 10,000 cells per well, free uptake, 2,000 nM, approximately 48 hours, RTS36584, Yap1 mRNA normalized to RIBOGREEN, relative to untreated control cells
[4] = Table 46, Yap1 mRNA as percent of untreated control, SNU-449 cells, single dose
[5] = Table 45, Yap1 mRNA as percent of untreated control, SNU-449 cells, single dose
[6] = Yap1 mRNA, percent of untreated control, modified oligonucleotides targeting SEQ ID NO: 1 and 2, Table 47
[7] = Table 40 (separate experiment), SNU-449 cells, 10,000 cells per well, free uptake, 2,000 nM oligonucleotide, approx. 48 hours, RTS36584, normalized to RIBOGREEN, Yap1 mRNA relative to untreated control
[8] = Table 39, SNU-449 cells, 10,000 cells per well, free uptake, 2,000 nM oligonucleotide, approx. 48 hours, RTS36584, normalized to RIBOGREEN, Yap1 mRNA relative to untreated control
[9] = Table 52, Yap1 mRNA, modified oligonucleotides targeting SEQ ID NO: 1 and 2
[10] = Table 50, Yap1 mRNA remaining as percent of untreated control (UT), SNU-449 cells, single dose
[11] = Table 41, SNU-449 cells, 10,000 cells per well, free uptake, 2,000 nM modified oligonucleotide, approximately 48 hours, RTS36584, normalized to RIBOGREEN, Yap1 mRNA relative to untreated control cells

## 1198578 (antisense GCTTTGGAAGATCTGA; chemistry not fully specified) [Compound 1198578]
[1]
  YAP1 (% UT): 18 % UT

## 1198277 (kA*kA*dG*dT*dA*dA*dG*dG*dT*dT*dT*e[5mC]*e[5mC]*e[5mC]*kA*kG; antisense) [Compound 1198277]
[2]
  YAP1 (% UTC): 32 % UTC

## 1198268 (kA*kA*dG*dT*dG*dT*dA*dT*dG*dT*d[5mC]*eA*eG*eA*kA*kG; antisense) [Compound 1198268]
[2]
  YAP1 (% UTC): 11 % UTC

## 1198328 (kA*kT*kT*dT*dA*dG*dG*dA*dT*dG*d[5mC]*dA*kT*eG*kG*eT; antisense) [Compound 1198328]
Table 48, Yap1 mRNA level relative to untreated control, modified oligonucleotides targeting SEQ ID NO.: 1 and 2
  YAP1 (% UT): 42 % UT

## 1198508 (k[5mC]*kT*dT*dA*dT*dA*dT*dG*dG*dT*dT*eT*kT*eG*kT*eG; antisense) [Compound 1198508]
[3]
  YAP1 (% UTC): 22 % UTC

## 1198900 (kA*kG*dA*dG*dT*dA*dT*dG*dT*dG*dG*k[5mC]*dA*kA*dT*kA; antisense) [Compound 1198900]
[3]
  YAP1 (% UTC): 11 % UTC

## 1198257 (kA*dT*dT*dG*d[5mC]*dA*dA*dT*d[5mC]*dT*dG*eT*e[5mC]*eT*kG*kA; antisense) [Compound 1198257]
[2]
  YAP1 (% UTC): 85 % UTC

## 1198850 (kA*kG*dA*dT*dT*dT*dA*dG*dG*dA*dT*kG*e[5mC]*kA*eT*kG; antisense) [Compound 1198850]
[4]
  YAP1 (% UT): 33 % UT

## 1197289 (kG*kG*kT*dA*mU*dA*dA*d[5mC]*dT*dG*dG*dG*d[5mC]*kA*kA*kA) [Compound 1197289]
Table 51, Yap1 mRNA remaining as percent of untreated control (UT), SNU-449 cells, single dose
  YAP1 (% UT): 48 % UT

## 1198927 (kT*kG*d[5mC]*dT*dT*dT*dG*dG*dA*dA*dG*kA*dT*k[5mC]*dT*kG; antisense) [Compound 1198927]
[5]
  YAP1 (% UTC): 50 % UTC

## 1198859 (kA*k[5mC]*dT*d[5mC]*dT*dT*dA*dT*dA*dT*dG*kG*eT*kT*eT*kT; antisense) [Compound 1198859]
[6]
  YAP1 (% UT): 33 % UT

## 1097037 (antisense kA*kG*kA*dT*dT*dT*dA*dG*dG*dA*dT*dG*d[5mC]*kA*kT*kG) [Compound 1097037]
[6]
  YAP1 (% UT): 38 % UT

## 1198242 (kA*kT*dT*dT*dA*dG*dG*dA*dT*dG*d[5mC]*eA*eT*eG*kG*kT; antisense) [Compound 1198242]
[2]
  YAP1 (% UTC): 47 % UTC

## 1198748 (kA*eA*kG*d[5mC]*dA*d[5mC]*dT*dT*dT*dT*dA*d[5mC]*eA*eT*kT*kA; antisense) [Compound 1198748]
[7]
  YAP1 (% UTC): 81 % UTC

## 1198266 (kT*kG*dT*dA*dT*dG*dT*d[5mC]*dA*dG*dA*eA*eG*eA*kG*kT; antisense) [Compound 1198266]
[2]
  YAP1 (% UTC): 25 % UTC

## 1095398 (antisense k[5mC]*dT*dG*dA*dG*dG*dT*dA*dT*dA*dA*k[5mC]*eT*kG*eG*kG) [Compound 1095398]
[8]
  YAP1 (% UTC): 38 % UTC

## 1200806 (kT*kG*kA*dG*dG*mU*dA*dT*dA*dA*d[5mC]*dT*dG*kG*kG*k[5mC]; antisense) [Compound 1200806]
[9]
  YAP1 (% UT): 24 % UT

## 1197220 (antisense kT*kA*kA*dG*dG*dT*dT*dT*d[5mC]*d[5mC]*d[5mC]*dA*dG*kA*kT*kT) [Compound 1197220]
[6]
  YAP1 (% UT): 32 % UT

## 1198926 (kG*k[5mC]*dT*dT*dT*dG*dG*dA*dA*dG*dA*kT*d[5mC]*kT*dG*kA; antisense) [Compound 1198926]
[5]
  YAP1 (% UTC): 45 % UTC

## 1198382 (kT*dT*dA*dG*dA*dG*dT*dA*dT*dG*dT*kG*eG*k[5mC]*eA*kA; antisense) [Compound 1198382]
[8]
  YAP1 (% UTC): 19 % UTC

## 1198854 (kA*kT*dA*dT*dG*dG*dT*dT*dT*dT*dG*kT*eG*kT*eG*kT; antisense) [Compound 1198854]
[4]
  YAP1 (% UT): 56 % UT

## 1198620 (kA*kG*kT*dA*dA*dG*dG*dT*dT*dT*d[5mC]*d[5mC]*k[5mC]*kA*kG*eA) [Compound 1198620]
[10]
  YAP1 (% UT): 26 % UT

## 1198592 (antisense kA*kT*kA*dT*dG*dG*dT*dT*dT*dT*dG*dT*kG*kT*kG*eT) [Compound 1198592]
[10]
  YAP1 (% UT): 50 % UT

## 1198744 (kA*e[5mC]*kT*dT*dT*dT*dA*d[5mC]*dA*dT*dT*dA*eG*eG*kA*kA; antisense) [Compound 1198744]
[7]
  YAP1 (% UTC): 66 % UTC

## 1198956 (kT*kA*dT*dG*dT*dA*dA*dT*dA*dT*dT*kG*d[5mC]*kA*dA*kT; antisense) [Compound 1198956]
[5]
  YAP1 (% UTC): 76 % UTC

## 1198354 (kA*kA*kG*dT*dG*dT*dA*dT*dG*dT*d[5mC]*dA*kG*eA*kA*eG; antisense) [Compound 1198354]
[1]
  YAP1 (% UT): 6 % UT

## 1198601 (antisense kA*kT*kT*dG*d[5mC]*dA*dA*dT*d[5mC]*dT*dG*dT*k[5mC]*kT*kG*eA) [Compound 1198601]
[10]
  YAP1 (% UT): 50 % UT

## 1200791 (kA*kT*kG*dG*dA*mA*dA*dT*dT*dG*dT*d[5mC]*dT*k[5mC]*kA*kT; antisense) [Compound 1200791]
[9]
  YAP1 (% UT): 46 % UT

## 1198244 (kA*kG*dA*dT*dT*dT*dA*dG*dG*dA*dT*eG*e[5mC]*eA*kT*kG; antisense) [Compound 1198244]
[2]
  YAP1 (% UTC): 24 % UTC

## 1198663 (antisense k[5mC]*kT*dT*dT*dG*dG*dA*dA*dG*dA*dT*d[5mC]*kT*eG*kA*eA) [Compound 1198663]
[11]
  YAP1 (% UTC): 76 % UTC

## 1198260 (kT*kA*dA*dT*dA*dT*dT*dG*d[5mC]*dA*dA*eT*e[5mC]*eT*kG*kT; antisense) [Compound 1198260]
[2]
  YAP1 (% UTC): 106 % UTC

## 1198390 (kA*dG*dG*dT*dA*dT*dA*dA*d[5mC]*dT*dG*kG*eG*k[5mC]*eA*kA; antisense) [Compound 1198390]
[8]
  YAP1 (% UTC): 37 % UTC

## 1198838 (kT*kT*dT*dG*dG*dA*dA*dG*dA*dT*d[5mC]*kT*eG*kA*eA*kA; antisense) [Compound 1198838]
[4]
  YAP1 (% UT): 66 % UT

## 1200826 (kG*kT*kG*d[5mC]*dT*mU*dT*dG*dG*dA*dA*dG*dA*kT*k[5mC]*kT; antisense) [Compound 1200826]
[9]
  YAP1 (% UT): 26 % UT

## 1198786 (antisense kT*eG*kT*dA*dT*dG*dT*d[5mC]*dA*dG*dA*dA*eG*eA*kG*kT) [Compound 1198786]
[11]
  YAP1 (% UTC): 16 % UTC

## 1198459 (antisense kA*kA*dA*dT*dT*dG*dT*d[5mC]*dT*d[5mC]*dA*eT*kG*e[5mC]*k[5mC]*eT) [Compound 1198459]
[2]
  YAP1 (% UTC): 28 % UTC

## 1200872 (kA*kG*kA*d[5mC]*dT*mA*dA*dG*dT*dA*dA*dG*dG*kT*kT*kT; antisense) [Compound 1200872]
[9]
  YAP1 (% UT): 98 % UT

## 1198632 (kG*kA*dA*dA*dT*dT*dG*dT*d[5mC]*dT*d[5mC]*dA*kT*eG*k[5mC]*e[5mC]; antisense) [Compound 1198632]
[11]
  YAP1 (% UTC): 21 % UTC

## 1198818 (antisense kT*kA*dT*dT*dA*dG*dA*dG*dT*dA*dT*kG*eT*kG*eG*k[5mC]) [Compound 1198818]
[4]
  YAP1 (% UT): 15 % UT
